Assay results as given in ChEMBL document CHEMBL1144308, “Novel CDK inhibition profiles of structurally varied 1-aza-9-oxafluorenes” (Bioorg Med Chem Lett, 2005).

Columns and labels:
Format in all cases: protein-complex assay
[1] = biological target: T1, Cyclin-dependent kinase 4/cyclin D1 (Homo sapiens, UniProt P11802); test: Inhibitory concentration tested against Cyclin dependant kinase 4-cyclinD1
[2] = biological target: Cyclin-dependent kinase 5/CDK5 activator 1 (Homo sapiens, UniProt Q00535); test: Inhibitory concentration tested against Cyclin-dependent kinase 5
Sequence of Cyclin-dependent kinase 5/CDK5 activator 1 (Homo sapiens, UniProt Q00535) (Q00535 whole entry): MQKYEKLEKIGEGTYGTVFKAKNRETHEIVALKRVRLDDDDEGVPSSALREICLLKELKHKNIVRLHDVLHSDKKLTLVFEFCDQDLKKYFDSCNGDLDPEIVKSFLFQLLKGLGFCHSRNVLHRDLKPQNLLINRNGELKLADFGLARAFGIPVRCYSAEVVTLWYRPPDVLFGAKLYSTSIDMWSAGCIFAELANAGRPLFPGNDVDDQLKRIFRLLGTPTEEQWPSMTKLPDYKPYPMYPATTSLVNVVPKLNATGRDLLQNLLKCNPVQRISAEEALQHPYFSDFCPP
Sequence of Cyclin-dependent kinase 5/CDK5 activator 1 (Homo sapiens, UniProt Q00535) (Q15078 whole entry, further chain): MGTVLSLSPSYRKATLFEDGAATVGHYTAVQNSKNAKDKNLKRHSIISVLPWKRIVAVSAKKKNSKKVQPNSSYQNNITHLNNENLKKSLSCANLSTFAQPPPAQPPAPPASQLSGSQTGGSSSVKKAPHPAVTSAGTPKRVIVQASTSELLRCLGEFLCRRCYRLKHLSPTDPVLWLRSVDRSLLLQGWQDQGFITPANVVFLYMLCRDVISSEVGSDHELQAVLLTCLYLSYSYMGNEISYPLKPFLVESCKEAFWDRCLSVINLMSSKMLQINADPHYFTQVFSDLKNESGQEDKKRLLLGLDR

[3] = biological target: T2, Cyclin-dependent kinase 2/cyclin E1 (Homo sapiens, UniProt P24941); test: Inhibitory concentration tested against Cyclin dependant kinase 2-cyclinE
[4] = biological target: Cyclin-dependent kinase 1/cyclin B1 (Homo sapiens, UniProt P06493); test: Inhibitory concentration tested against Cyclin dependant kinase 1-cyclinB
Sequence of Cyclin-dependent kinase 1/cyclin B1 (P06493 whole entry): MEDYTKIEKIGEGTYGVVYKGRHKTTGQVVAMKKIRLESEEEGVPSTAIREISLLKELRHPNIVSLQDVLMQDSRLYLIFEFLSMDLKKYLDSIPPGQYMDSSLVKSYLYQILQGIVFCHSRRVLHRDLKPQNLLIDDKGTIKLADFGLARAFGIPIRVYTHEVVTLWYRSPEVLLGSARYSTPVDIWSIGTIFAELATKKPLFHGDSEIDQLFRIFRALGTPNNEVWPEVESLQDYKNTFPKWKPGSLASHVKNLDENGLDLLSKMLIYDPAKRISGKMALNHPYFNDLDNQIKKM
Sequence of Cyclin-dependent kinase 1/cyclin B1 (P14635 whole entry, further chain): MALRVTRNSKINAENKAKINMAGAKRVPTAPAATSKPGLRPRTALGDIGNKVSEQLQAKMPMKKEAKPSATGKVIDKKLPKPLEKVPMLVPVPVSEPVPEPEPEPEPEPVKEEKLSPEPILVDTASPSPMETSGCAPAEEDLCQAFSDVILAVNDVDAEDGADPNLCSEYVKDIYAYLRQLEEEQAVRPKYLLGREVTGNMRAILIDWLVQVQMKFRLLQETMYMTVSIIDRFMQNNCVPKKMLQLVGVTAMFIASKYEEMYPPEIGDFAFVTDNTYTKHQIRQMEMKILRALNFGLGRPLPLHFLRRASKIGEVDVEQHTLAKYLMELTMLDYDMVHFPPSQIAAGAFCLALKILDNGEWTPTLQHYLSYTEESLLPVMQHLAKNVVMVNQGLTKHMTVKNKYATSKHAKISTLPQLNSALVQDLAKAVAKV

[5] = biological target: Cyclin-dependent kinase 5/CDK5 activator 1 (Homo sapiens, UniProt Q00535+Q15078); test: Inhibitory concentration tested against Cyclin-dependent kinase 5; NA: not active
Sequence of Cyclin-dependent kinase 5/CDK5 activator 1 (Homo sapiens, UniProt Q00535+Q15078) (Q00535 whole entry): as the sequence (Q00535 whole entry) above
Sequence of Cyclin-dependent kinase 5/CDK5 activator 1 (Homo sapiens, UniProt Q00535+Q15078) (Q15078 whole entry): as the sequence (Q15078 whole entry, further chain) above

[6] = biological target: T2, Cyclin-dependent kinase 2/cyclin E1; test: Inhibitory concentration tested against Cyclin dependant kinase 2-cyclinE; ND: not determined
[7] = biological target: T1, Cyclin-dependent kinase 4/cyclin D1; test: Inhibitory concentration tested against Cyclin dependant kinase 4-cyclinD1; ND: not determined

T1 sequence (P11802 whole entry): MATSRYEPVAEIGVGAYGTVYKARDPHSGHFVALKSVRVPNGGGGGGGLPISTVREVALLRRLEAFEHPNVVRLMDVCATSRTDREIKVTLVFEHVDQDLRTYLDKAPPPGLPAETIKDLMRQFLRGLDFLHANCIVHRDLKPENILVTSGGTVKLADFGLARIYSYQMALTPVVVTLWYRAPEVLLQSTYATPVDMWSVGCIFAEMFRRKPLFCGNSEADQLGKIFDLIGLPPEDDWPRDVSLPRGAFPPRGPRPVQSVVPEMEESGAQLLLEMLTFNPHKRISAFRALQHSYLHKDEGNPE
T1 sequence (P24385 whole entry, further chain): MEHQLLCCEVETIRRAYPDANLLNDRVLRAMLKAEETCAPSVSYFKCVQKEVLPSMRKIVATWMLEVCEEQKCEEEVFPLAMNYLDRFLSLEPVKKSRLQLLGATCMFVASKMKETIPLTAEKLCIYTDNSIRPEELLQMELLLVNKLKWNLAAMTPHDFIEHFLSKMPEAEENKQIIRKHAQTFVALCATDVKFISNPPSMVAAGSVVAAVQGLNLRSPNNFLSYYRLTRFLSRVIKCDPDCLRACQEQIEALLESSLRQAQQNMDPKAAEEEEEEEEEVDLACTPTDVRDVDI

Structure (SMILES) | IC50 [1] [µM] | IC50 [2] [µM] | IC50 [3] [µM] | IC50 [4] [µM] | IC50 [5] | IC50 [6] [µM] | IC50 [7] [µM]
COc1cnc2oc3ccc(O)cc3c2c1-c1ccccc1 | > 100 | 6.3 | 80 | 64.3 |  |  | 
Cc1cnc2oc3ccc(O)cc3c2c1-c1ccccc1 | > 100 |  | > 100 | > 100 | Not Active |  | 
CC(=O)c1cnc2oc3ccc(O)cc3c2c1-c1ccccc1 |  |  |  | 4.2 |  | > 100 | > 100
Oc1ccc2oc3ncc(Br)c(-c4ccccc4)c3c2c1 | 28.7 |  | 3.2 | 70.7 | Not Active |  | 
Oc1ccc2oc3ncc(Cl)c(-c4ccccc4)c3c2c1 | > 100 |  | > 100 | > 100 | Not Active |  | 
CCOc1cnc2oc3ccc(O)cc3c2c1-c1ccccc1 | > 100 | 5.9 | > 100 | > 100 |  |  | 
